In one assay the target is Melanocortin receptor 4 (Homo sapiens, UniProt P32245). Kind of assay: inhibitors of MC4R cAMP signaling – cell-based, TR-FRET, biased antagonists, dose response (AID 602298).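 Note: antagonist potency against agonist-stimulated cAMP production.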 The format is functional. On the technique in general: Time-resolved FRET reads energy transfer from a long-lived donor to a nearby acceptor.
Assay [1] in a line: cAMP pathway inhibition in counterscreen cell line – TR-FRET cAMP detection, counter-screen for MC4R biased antagonist project, dose response (AID 602305).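 Note: U2OS cells stimulated with forskolin near its EC80 as the cAMP inducer; potency is for inhibition of forskolin-stimulated cAMP signaling.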 The format is functional, cell-based.
For assay [2], the system named is HEK293. Put plainly: membrane integrity loss in HEK cells – cell-based, fluorescence, cytotoxicity control for IDE activator project, dose response (AID 588440).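 Note: cytotoxicity by LDH release measuring loss of membrane integrity.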 The format is functional. As to conditions: Homo sapiens.
Assay [3] addresses T1, Insulin-degrading enzyme (Homo sapiens, UniProt P14735).
T1 sequence (P14735 whole entry): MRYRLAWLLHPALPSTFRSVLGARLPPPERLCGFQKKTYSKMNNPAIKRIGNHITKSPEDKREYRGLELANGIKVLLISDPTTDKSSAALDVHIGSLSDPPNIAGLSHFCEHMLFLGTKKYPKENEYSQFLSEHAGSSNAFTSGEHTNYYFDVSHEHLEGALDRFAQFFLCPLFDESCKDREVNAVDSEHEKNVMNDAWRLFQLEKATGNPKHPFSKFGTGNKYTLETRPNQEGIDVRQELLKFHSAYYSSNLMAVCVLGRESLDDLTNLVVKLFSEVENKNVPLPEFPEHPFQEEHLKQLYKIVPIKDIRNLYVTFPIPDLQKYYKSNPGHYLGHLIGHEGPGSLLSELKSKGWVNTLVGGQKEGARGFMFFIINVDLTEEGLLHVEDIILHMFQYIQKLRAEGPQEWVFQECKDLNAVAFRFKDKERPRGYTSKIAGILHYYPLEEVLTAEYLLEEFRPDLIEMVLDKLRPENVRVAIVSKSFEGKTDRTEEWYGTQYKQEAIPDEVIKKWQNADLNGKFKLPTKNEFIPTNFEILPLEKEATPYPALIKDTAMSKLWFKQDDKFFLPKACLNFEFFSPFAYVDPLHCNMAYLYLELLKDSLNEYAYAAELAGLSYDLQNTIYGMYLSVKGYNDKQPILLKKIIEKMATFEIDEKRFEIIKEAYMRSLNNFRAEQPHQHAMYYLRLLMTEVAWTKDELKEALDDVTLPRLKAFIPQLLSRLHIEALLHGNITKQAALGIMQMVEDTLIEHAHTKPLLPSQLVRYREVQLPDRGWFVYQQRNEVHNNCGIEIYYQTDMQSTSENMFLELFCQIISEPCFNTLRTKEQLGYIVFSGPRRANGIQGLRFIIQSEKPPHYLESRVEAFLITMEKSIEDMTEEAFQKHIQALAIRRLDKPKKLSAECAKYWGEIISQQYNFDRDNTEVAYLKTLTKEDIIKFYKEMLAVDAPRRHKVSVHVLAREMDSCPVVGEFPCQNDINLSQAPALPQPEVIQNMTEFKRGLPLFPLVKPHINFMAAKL
Put plainly: recombinant IDE activation, cell-free – biochemical, fluorescence polarization, counter-screen for IDE activator project, dose response (AID 588681).

In assay [4] the test system is HEK293. Put plainly: optical interference in Abeta FP readout, dose response, artefact control for IDE activator project, biochemical, fluorescence polarization (AID 588442). In kind it is functional, cell-based. To be noted: Homo sapiens. (In fluorescence polarisation assays a small probe gives low polarisation when free and higher when bound to something large.)

For assay [5], the target named is T1, Insulin-degrading enzyme. Put plainly: cellular IDE activation of Abeta substrate cleavage – fluorescence polarization, HEK cells, dose response (AID 588439). In kind it is functional, cell-based.
Assay [6] in a line: blockers of HIV-1 envelope-mediated cell-cell fusion – cherry-pick, dose response (AID 652057). The format is functional, cell-based.
The target of assay [7] is T2, Orexin receptor type 2 (Homo sapiens, UniProt O43614).
T2 sequence (O43614 whole entry): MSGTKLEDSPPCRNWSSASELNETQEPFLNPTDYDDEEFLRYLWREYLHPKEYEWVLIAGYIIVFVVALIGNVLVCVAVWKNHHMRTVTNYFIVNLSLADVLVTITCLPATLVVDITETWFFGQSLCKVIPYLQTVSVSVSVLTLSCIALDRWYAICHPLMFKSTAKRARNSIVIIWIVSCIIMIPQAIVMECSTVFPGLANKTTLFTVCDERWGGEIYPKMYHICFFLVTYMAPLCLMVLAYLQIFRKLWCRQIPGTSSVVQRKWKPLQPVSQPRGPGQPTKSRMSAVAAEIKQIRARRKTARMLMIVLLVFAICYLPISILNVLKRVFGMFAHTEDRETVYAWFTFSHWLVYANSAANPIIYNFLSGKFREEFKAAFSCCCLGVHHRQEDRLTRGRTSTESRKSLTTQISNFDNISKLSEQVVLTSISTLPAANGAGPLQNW
Put plainly: Counterscreen assay for antagonists of the orexin 1 receptor (OX1R; HCRTR1): Homogeneous Time Resolved Fluorescence (HTRF)-based cell-based dose response assay for antagonists of the orexin 2 receptor (OX2R; HCRTR2), run by assay provider. In kind it is functional.

Assay [8] can be described thus: HIV-1 AD8 envelope cell-cell fusion blockers – cherry-pick, dose response (AID 652062).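 Note: luciferase signal from cell-cell fusion driven by HIV-1 clade B AD8 Env; potency is for inhibitors of fusion seen as a drop in luminescence.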 In kind it is functional, cell-based.
Assay [9] has as its target T2, Orexin receptor type 2. Kind of assay: Counterscreen assay for antagonists of the orexin 1 receptor (OX1R; HCRTR1): Fluorescence-based cell-based dose response assay for antagonists of the orexin 2 receptor (OX2R; HCRTR2), run by assay provider. The format is functional. Background: The purpose of a counterscreen is to sort out artefacts and off-target activity.
Assay [10] in a line: Counterscreen for antagonists of the orexin 1 receptor (OX1R; HCRTR1): Fluorescence-based cell-based high throughput dose response assay to identify antagonists of the parental CHO cell line. [Related pubchem assays (depositor defined):AID434989, AID435008, AID463079, AID485270, AID492963, AID492964, AID492965, AID493232, AID504699, AID504701]. The format is functional.
Assay [11] concerns the target T3, Orexin/Hypocretin receptor type 1 (Homo sapiens, UniProt O43613).
T3 sequence (O43613 whole entry): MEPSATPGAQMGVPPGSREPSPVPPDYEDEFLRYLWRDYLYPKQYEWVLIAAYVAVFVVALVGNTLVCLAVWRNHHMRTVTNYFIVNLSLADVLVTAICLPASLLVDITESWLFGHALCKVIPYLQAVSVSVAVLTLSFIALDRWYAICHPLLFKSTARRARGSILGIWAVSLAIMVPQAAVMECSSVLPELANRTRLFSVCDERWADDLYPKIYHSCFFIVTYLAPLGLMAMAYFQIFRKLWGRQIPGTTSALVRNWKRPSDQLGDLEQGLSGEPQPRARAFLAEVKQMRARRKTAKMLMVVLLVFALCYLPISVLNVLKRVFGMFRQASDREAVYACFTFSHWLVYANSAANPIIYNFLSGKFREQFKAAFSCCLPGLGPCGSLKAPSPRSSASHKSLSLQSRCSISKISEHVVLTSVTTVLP
Kind of assay: Homogeneous Time Resolved Fluorescence (HTRF)-based cell-based high throughput dose response assay for antagonists of the orexin 1 receptor (OX1R; HCRTR1). [Related pubchem assays (depositor defined):AID434989, AID435008, AID463079, AID485270, AID492963, AID492964, AID492965, AID493232, AID504717, AID504718]. In kind it is functional.

In assay [12] the target is T3, Orexin/Hypocretin receptor type 1. Kind of assay: Fluorescence-based cell-based high throughput dose response assay for antagonists of the orexin 1 receptor (OX1R; HCRTR1). [Related pubchem assays (depositor defined):AID434989, AID435008, AID463079, AID485270, AID492963, AID492964, AID492965, AID493232, AID504717, AID504718]. In kind it is functional.
The test system of another assay is CHO-K1. Put plainly: Counterscreen for antagonists of the orexin 1 receptor (OX1R; HCRTR1): Homogeneous time resolved fluorescence (HTRF)-based cell-based dose response assay to identify antagonists of the parental CHO-K1 cell line. [Related pubchem assays (depositor defined):AID434989, AID435008, AID463079, AID485270, AID492963, AID492964, AID492965, AID493232, AID504699, AID504701]. The format is functional. As to conditions: Cricetulus griseus.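 Note: potency for inhibition of ATP-stimulated IP1 production as antagonists.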

Assay [13] deals with Mitogen-activated protein kinase 10 (Homo sapiens, UniProt P53779). Put plainly: Dose response biochemical screening assay for inhibitors of c-Jun N-Terminal Kinase 3 (JNK3). [Related pubchem assays: 746 ].
Mitogen-activated protein kinase 10, sequence (P53779 whole entry): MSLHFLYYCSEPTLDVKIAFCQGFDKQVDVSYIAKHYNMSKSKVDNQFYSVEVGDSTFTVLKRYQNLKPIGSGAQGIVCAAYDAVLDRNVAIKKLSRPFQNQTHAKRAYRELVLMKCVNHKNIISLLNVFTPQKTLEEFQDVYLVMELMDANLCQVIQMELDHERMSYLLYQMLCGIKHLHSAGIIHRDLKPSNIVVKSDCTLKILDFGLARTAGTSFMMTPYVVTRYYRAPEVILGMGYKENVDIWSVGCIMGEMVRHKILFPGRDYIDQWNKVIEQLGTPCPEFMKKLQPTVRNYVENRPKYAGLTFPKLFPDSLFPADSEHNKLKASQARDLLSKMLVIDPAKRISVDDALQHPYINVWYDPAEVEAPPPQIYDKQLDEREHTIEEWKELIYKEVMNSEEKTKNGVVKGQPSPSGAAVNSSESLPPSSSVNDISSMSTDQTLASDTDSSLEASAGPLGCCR

Active and inactive are the calls of the source.

Melanocortin receptor 4, sequence (P32245 whole entry): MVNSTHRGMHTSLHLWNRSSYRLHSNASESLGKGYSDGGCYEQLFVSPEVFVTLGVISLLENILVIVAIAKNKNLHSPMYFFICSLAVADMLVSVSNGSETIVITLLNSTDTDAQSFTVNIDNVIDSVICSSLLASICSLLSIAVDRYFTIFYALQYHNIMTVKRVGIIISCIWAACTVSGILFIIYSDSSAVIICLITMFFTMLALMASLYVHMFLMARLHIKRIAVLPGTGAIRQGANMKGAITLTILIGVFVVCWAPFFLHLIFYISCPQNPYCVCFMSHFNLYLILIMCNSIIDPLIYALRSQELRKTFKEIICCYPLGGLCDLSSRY

On to `Cc1cc2nccc(-c3ccc(Cl)c([N+](=O)[O-])c3)n2n1`, for which the IC50 (at Melanocortin receptor 4; in assay [1]) was > 64.6 µM (inactive) in each case.
With `COc1ccccc1NS(=O)(=O)c1cccc(NC(=O)C2CC2)c1`, the IC50 (commonly the midpoint of a concentration-inhibition curve) with HEK293 [2] is > 89.2 µM (inactive). In addition, the EC50 (in general, the concentration giving half of the maximal effect) at Insulin-degrading enzyme [3] is > 54.7 µM (inactive); in the assay on HEK293 [4], > 55.9 µM (inactive); at Insulin-degrading enzyme [5] it was > 54.7 µM (inactive).
For `O=S(=O)(NC1CC1)c1ccc(S(=O)(=O)N2CCCc3ccccc32)cc1`, the AC50 (in general, the midpoint of the concentration-response curve, whichever way the signal moves) in assay [6] is 28.3 µM (active); in assay [8], 16.9 µM (active). The IC50 is 6.62 µM (active) on Orexin receptor type 2 [7]; > 88.8 µM (inactive) on Orexin receptor type 2 [9]; 18.2 µM (inactive) in assay [10]; 6.71 µM (active) in [11]; 6.07 µM (active) in assay [12]; > 66.2 µM (inactive) with CHO-K1.
Consider `O=[N+]([O-])c1cccc(Cl)c1NCCNc1ncc(C(F)(F)F)cc1Cl`, for which the IC50 in the assay on HEK293 [2] is > 89.2 µM (inactive). In addition, the EC50 on Insulin-degrading enzyme [3], with HEK293 [4] and at Insulin-degrading enzyme [5] was > 54.7 µM (inactive) throughout.
Consider `O=C1OCCC1Sc1nc2cc(Cl)ccc2n1Cc1ccccc1` (configuration not stated), for which the IC50 (at Melanocortin receptor 4; in [1]) was > 64.6 µM (inactive) in each case.
`CC(=O)N1CCC(=O)Nc2ccc([N+](=O)[O-])cc21`: the IC50 with HEK293 [2] was > 89.3 µM (inactive). Besides, the EC50 at Insulin-degrading enzyme [3], in the assay on HEK293 [4] and at Insulin-degrading enzyme [5] was > 54.7 µM (inactive) throughout.
In the case of `COc1cccc(OP(=O)(Nc2ccccc2)Oc2cccc(OC)c2)c1`, the IC50 at Orexin receptor type 2 [7] was > 50 µM (inactive); at Orexin receptor type 2 [9], > 88.8 µM (inactive); in [10], > 49.7 µM (inactive); in assay [11], 9.26 µM (active); in assay [12] it was 14.5 µM (inactive); in the assay on CHO-K1 it was > 66.2 µM (inactive).
Regarding `CCn1c(C)cs/c1=N/C(=O)c1ccccc1O`, the IC50 was 40.7 µM (not active) in assay [13]; > 50 µM (inactive) at Orexin receptor type 2 [7]; > 88.8 µM (inactive) on Orexin receptor type 2 [9]; > 49.8 µM (inactive) in [10]; 2.69 µM (active) in assay [11]; 7.37 µM (active) in [12]. The IC50 in the assay with CHO-K1 is > 66.3 µM (inactive).
